In PubChem BioAssay AID330 (DTP/NCI, 2004):
Values joined by “and” are separate entries in the source; they are usually repeats but may differ in a detail not shown here. Equal values may be shown once. Inconclusive results and toxic doses are left out.

Test system: P388 leukemia ip, CD2F1 mice, survival T/C
Assay: NCI In Vivo Anticancer Drug Screen. Data for tumor model P388 Leukemia (intraperitoneal) in CD2F1 (CDF1) mice
Settings: endpoint: median survival time, higher = longer survival
How it was run: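 Mice carrying the transplanted tumor received test compound or vehicle. Survival was recorded in each group, and the value is the treated-group measurement divided by that of the vehicle-treated control group.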

[1] = dose: 60.0 mg/kg/injection, schedule: Q01DX005 (ip), vehicle: saline
[2] = dose: 120.0 mg/kg/injection, schedule: Q01DX005 (ip), vehicle: saline
[3] = dose: 240.0 mg/kg/injection, schedule: Q01DX005 (ip), vehicle: saline
[4] = dose: 50.0 mg/kg/injection, schedule: Q01DX005 (ip), vehicle: saline with Tween-80
[5] = dose: 100.0 mg/kg/injection, schedule: Q01DX005 (ip), vehicle: saline with Tween-80
[6] = dose: 200.0 mg/kg/injection, schedule: Q01DX005 (ip), vehicle: saline with Tween-80
[7] = dose: 50.0 mg/kg/injection, schedule: Q01DX009 (ip), vehicle: Klucel (hydroxypropylcellulose) (HPC)
[8] = dose: 100.0 mg/kg/injection, schedule: Q01DX009 (ip), vehicle: Klucel (hydroxypropylcellulose) (HPC)
[9] = dose: 50.0 mg/kg/injection, schedule: Q01DX009 (ip), vehicle: saline with Tween-80
[10] = dose: 100.0 mg/kg/injection, schedule: Q01DX009 (ip), vehicle: saline with Tween-80
[11] = dose: 200.0 mg/kg/injection, schedule: Q01DX009 (ip), vehicle: saline with Tween-80
[12] = dose: 50.0 mg/kg/injection, schedule: Q01DX005 (ip), vehicle: saline
[13] = dose: 200.0 mg/kg/injection, schedule: Q01DX009 (ip), vehicle: Klucel (hydroxypropylcellulose) (HPC)
[14] = dose: 60.0 mg/kg/injection, schedule: Q01DX005 (ip), vehicle: saline with Tween-80
[15] = dose: 120.0 mg/kg/injection, schedule: Q01DX005 (ip), vehicle: saline with Tween-80
[16] = dose: 25.0 mg/kg/injection, schedule: Q01DX009 (ip), vehicle: water
[17] = dose: 50.0 mg/kg/injection, schedule: Q01DX009 (ip), vehicle: water
[18] = dose: 100.0 mg/kg/injection, schedule: Q01DX009 (ip), vehicle: water
[19] = dose: 100.0 mg/kg/injection, schedule: Q01DX001 (ip), vehicle: saline
[20] = dose: 200.0 mg/kg/injection, schedule: Q01DX001 (ip), vehicle: saline
[21] = dose: 400.0 mg/kg/injection, schedule: Q01DX001 (ip), vehicle: saline

SMILES: CCOC(=O)C12CCCC1=NN=C2C1=NN=C2CCCC21C(=O)OCC (stereo unspecified)
- T/C [1]: 103 % of control
- T/C [2]: 98 % of control
- T/C [3]: 101 % of control

SMILES: C[C@@H]1C[C@@H]2c3cccc4c3c(cn4C)C[C@H]2N(C)C1
- T/C [4]: 104 % of control
- T/C [5]: 107 % of control
- T/C [6]: 104 % of control

SMILES: COc1ccc(C2CC(=O)C=C3c4ccc(OC)cc4CCC32)cc1 (stereo unspecified)
- T/C [7]: 91 % of control
- T/C [8]: 91 % of control

SMILES: CNC(=O)CCl
- T/C (dose: 100.0 mg/kg/injection, schedule: Q04DX003 (ip), vehicle: saline): 99 % of control
- T/C (dose: 200.0 mg/kg/injection, schedule: Q04DX003 (ip), vehicle: saline): 99 % of control

SMILES: CNC(=O)OC/C=C/c1ccccc1
- T/C [9]: 99 % of control
- T/C [10]: 99 % of control
- T/C [11]: 92 % of control

SMILES: COc1cc(C(=O)O)cc(C(=O)O)c1
- T/C (dose: 6.25 mg/kg/injection, schedule: Q01DX009 (ip), vehicle: saline): 99 % of control
- T/C (dose: 12.5 mg/kg/injection, schedule: Q01DX009 (ip), vehicle: saline): 107 % of control
- T/C (dose: 25.0 mg/kg/injection, schedule: Q01DX009 (ip), vehicle: saline): 100 % of control

SMILES: C(=N[C@H]1CCCC[C@H]1N=Cc1ccccn1)c1ccccn1
- T/C [4]: 95 % of control
- T/C [5]: 90 % of control
- T/C [6]: 101 % of control

SMILES: CC(=O)OCC#CCN1CCCCC1C (stereo unspecified)
- T/C [12]: 111 % of control
- T/C (dose: 100.0 mg/kg/injection, schedule: Q01DX005 (ip), vehicle: saline): 101 % of control
- T/C (dose: 200.0 mg/kg/injection, schedule: Q01DX005 (ip), vehicle: saline): 103 % of control

SMILES: O=C1N(Cl)C(=O)C(c2ccc(Cl)cc2)(c2ccc(Cl)cc2)N1Cl
- T/C (dose: 12.5 mg/kg/injection, schedule: Q01DX009 (ip), vehicle: saline with Tween-80): 118 % of control
- T/C [9]: 150 % of control

SMILES: Nc1nc(-c2ccc3ccccc3c2)cc(-c2cc(-c3ccc4ccccc4c3)nc(N)n2)n1
- T/C (dose: 60.0 mg/kg/injection, schedule: Q01DX005 (ip), vehicle: Klucel (hydroxypropylcellulose) (HPC)): 96 % of control
- T/C (dose: 120.0 mg/kg/injection, schedule: Q01DX005 (ip), vehicle: Klucel (hydroxypropylcellulose) (HPC)): 93 % of control
- T/C (dose: 240.0 mg/kg/injection, schedule: Q01DX005 (ip), vehicle: Klucel (hydroxypropylcellulose) (HPC)): 91 % of control

SMILES: COc1ccc(C(O)c2cc(C(F)(F)F)cc(C(F)(F)F)c2)cc1OC (stereo unspecified)
- T/C (dose: 50.0 mg/kg/injection, schedule: Q01DX005 (ip), vehicle: Klucel (hydroxypropylcellulose) (HPC)): 100 % of control
- T/C (dose: 100.0 mg/kg/injection, schedule: Q01DX005 (ip), vehicle: Klucel (hydroxypropylcellulose) (HPC)): 92 % of control
- T/C (dose: 200.0 mg/kg/injection, schedule: Q01DX005 (ip), vehicle: Klucel (hydroxypropylcellulose) (HPC)): 91 % of control

SMILES: CCC(C)C(N)C(=O)O (stereo unspecified)
- T/C [7]: 109 % of control
- T/C [8]: 94 % of control
- T/C [13]: 105 % of control

SMILES: C/C(=N/NC(=O)c1ccccc1)c1ccccc1O
- T/C [9]: 104 % of control
- T/C [10]: 100 % of control
- T/C [11]: 104 % of control
- T/C (dose: 400.0 mg/kg/injection, schedule: Q01DX009 (ip), vehicle: saline with Tween-80): 107 % of control

SMILES: CC(C)c1nccn1Cc1ccc(Cl)cc1Cl
- T/C [14]: 88 % of control
- T/C [15]: 99 % of control

SMILES: O=C1C(NCC(O)CO)=C(N2CC2)C(=O)C(NCC(O)CO)=C1N1CC1 (stereo unspecified)
- T/C (dose: 1.5 mg/kg/injection, schedule: Q01DX009 (ip), vehicle: saline): 198 % of control
- T/C (dose: 3.0 mg/kg/injection, schedule: Q01DX009 (ip), vehicle: saline): 227 % of control
- T/C (dose: 4.0 mg/kg/injection, schedule: Q01DX009 (ip), vehicle: saline): 270 % of control

SMILES: CC(=O)OCCSCCO
- T/C [16]: 94 % of control
- T/C [17]: 99 % of control
- T/C [18]: 99 % of control
- T/C (dose: 200.0 mg/kg/injection, schedule: Q01DX009 (ip), vehicle: water): 104 % of control
- T/C (dose: 400.0 mg/kg/injection, schedule: Q01DX009 (ip), vehicle: water): 99 % of control

SMILES: CC(=O)NN=C(c1ccccc1)c1ccccc1
- T/C [9]: 100 % of control
- T/C [10]: 100 % of control
- T/C [11]: 100 % of control

SMILES: O=[N+]([O-])c1ccc(-[n+]2ccc3ccccc3c2)c([N+](=O)[O-])c1
- T/C (dose: 12.5 mg/kg/injection, schedule: Q01DX005 (ip), vehicle: saline): 110 % of control
- T/C (dose: 25.0 mg/kg/injection, schedule: Q01DX005 (ip), vehicle: saline): 106 % of control
- T/C [12]: 104 % of control and 111 % of control

SMILES: C=c1[nH]c(=O)c(=C)[nH]c1=O
- T/C (dose: 12.5 mg/kg/injection, schedule: Q01DX009 (ip), vehicle: other): 94 % of control
- T/C (dose: 25.0 mg/kg/injection, schedule: Q01DX009 (ip), vehicle: other): 90 % of control
- T/C (dose: 50.0 mg/kg/injection, schedule: Q01DX009 (ip), vehicle: other): 99 % of control
- T/C (dose: 100.0 mg/kg/injection, schedule: Q01DX009 (ip), vehicle: other): 106 % of control

SMILES: CC1=C/C(=N\SC(c2ccccc2)(c2ccccc2)c2ccccc2)CCC1
- T/C (dose: 100.0 mg/kg/injection, schedule: Q04DX002 (ip), vehicle: saline with Tween-80): 94 % of control
- T/C (dose: 200.0 mg/kg/injection, schedule: Q04DX002 (ip), vehicle: saline with Tween-80): 95 % of control

SMILES: COC(=O)C1(OC(=O)CCC(=O)O)C(=O)NC2=C1C(=O)c1ccccc1C2=O (stereo unspecified)
- T/C [4]: 109 % of control and 119 % of control
- T/C [6]: 111 % of control and 113 % of control

SMILES: Nc1ncnc2c1c(-c1ccc(Cl)cc1)cn2-c1ccc(I)cc1
- T/C [14]: 100 % of control
- T/C [15]: 102 % of control
- T/C (dose: 240.0 mg/kg/injection, schedule: Q01DX005 (ip), vehicle: saline with Tween-80): 88 % of control

SMILES: CC(SC(C)(C)C)C(=O)SC(C)(C)C (stereo unspecified)
- T/C (dose: 100.0 mg/kg/injection, schedule: Q04DX003 (ip), vehicle: Klucel (hydroxypropylcellulose) (HPC)): 102 % of control
- T/C (dose: 200.0 mg/kg/injection, schedule: Q04DX003 (ip), vehicle: Klucel (hydroxypropylcellulose) (HPC)): 103 % of control
- T/C (dose: 400.0 mg/kg/injection, schedule: Q04DX003 (ip), vehicle: Klucel (hydroxypropylcellulose) (HPC)): 105 % of control

SMILES: CCOC(CC#CC(=O)N(C)C)OCC
- T/C [1]: 100 % of control
- T/C [2]: 107 % of control
- T/C [3]: 101 % of control

SMILES: OCCCCCCCCCCCCCC1C=CCC1 (stereo unspecified)
- T/C [19]: 104 % of control
- T/C [20]: 100 % of control
- T/C [21]: 100 % of control

SMILES: OCc1ccn2c1CCC2
- T/C (dose: 6.25 mg/kg/injection, schedule: Q01DX009 (ip), vehicle: water): 107 % of control
- T/C (dose: 12.5 mg/kg/injection, schedule: Q01DX009 (ip), vehicle: water): 109 % of control
- T/C [16]: 110 % of control
- T/C [17]: 115 % of control
- T/C [18]: 109 % of control

SMILES: COCC1(C)CCCC2(C)C3=C(CCC(OC)C3)CCC12 (stereo unspecified)
- T/C [19]: 99 % of control
- T/C [20]: 96 % of control
- T/C [21]: 93 % of control

SMILES: CSc1nc(COC(=O)NC(C)C)c(COC(=O)NC(C)C)n1C
- T/C (dose: 12.5 mg/kg/injection, schedule: Q01DX005 (ip), vehicle: Klucel + Tween-80): 113 % of control
- T/C (dose: 25.0 mg/kg/injection, schedule: Q01DX005 (ip), vehicle: Klucel + Tween-80): 116 % of control
- T/C (dose: 100.0 mg/kg/injection, schedule: Q01DX005 (ip), vehicle: Klucel + Tween-80): 156 % of control and 163 % of control
- T/C (dose: 200.0 mg/kg/injection, schedule: Q01DX005 (ip), vehicle: Klucel + Tween-80): 184 % of control

SMILES: Cc1ccc(S(=O)(=O)NN=c2c3ccccc3ccc3ccccc23)cc1
- T/C (dose: 100.0 mg/kg/injection, schedule: Q04DX002 (ip), vehicle: Klucel (hydroxypropylcellulose) (HPC)): 94 % of control
- T/C (dose: 200.0 mg/kg/injection, schedule: Q04DX002 (ip), vehicle: Klucel (hydroxypropylcellulose) (HPC)): 91 % of control
- T/C (dose: 400.0 mg/kg/injection, schedule: Q04DX002 (ip), vehicle: Klucel (hydroxypropylcellulose) (HPC)): 90 % of control

SMILES: CCO/C([O-])=C(\C=N\S(=O)(=O)c1ccc(C)cc1)[n+]1ccccc1
- T/C [7]: 104 % of control
- T/C [8]: 105 % of control
- T/C [13]: 108 % of control
